According to US9708286B2, “Ingenol-3-acylates III and ingenol-3-carbamates” (LEO Laboratories Limited, priority 2010, dated 2017):
pEC50: −log10 of the molar value.

What was measured:
[1] = system: PMN's (polymorphonuclear leukocytes); experiment: Neutrophil oxidative burst; type: cell-based; details: Leukocyte, 40 min, read-out: Neutrophil oxidative burst Rel EC50 range, PMN from buffy coats, 40 min at RT, hydroethidine fluorescence; normalized to 5×10^−7 M PEP0005
Protocol: PMN's (polymorphonuclear leukocytes) were isolated and purified from fresh buffy coats by sequential sedimentation, density centrifugation and lysis of contaminating erythrocytes. Buffy coats were incubated with 2% methocel for 30-45 min to differentially sediment red blood cells. The leukocyte-rich supernatant was transferred to lymphoprep tubes to remove mononuclear cells by density centrifugation (400×g, 30 min). The pellet was resuspended and any remaining erythrocytes lysed using 0.2% NaCl for 30 sec before restoring isotonicity by the addition of 1.2% NaCl. This step was repeated until the cell pellet appears relatively free of red blood cells. Cells were resuspended in DPBS (Dulbecco's Phosphate Buffered Saline) (w.o. Ca^2+, Mg^2+) and the concentration adjusted to 1.4×10^6 cells/ml in HBSS (Hanks Balanced Salt solution) (w Ca^2+, Mg^2±) containing 0.1% BSA (Bovine Serum Albumin) and 5 mM glucose just prior to assay initiation. Titrated reference and test compounds were pre-mixed with HE (Hydroethidine) (10 μM final assay concentration) before addition to 96-well plates containing 2.5×10^5 cells. Following 40 min incubation at RT, changes in the respiratory burst was estimated by measuring fluorescence at 579 nm (excitation: 485 nm) using an Envision plate reader.
Test compound titration curves were fitted to a four-parameter sigmoidal curve after normalizing the effect of the test compound to the effect of the positive control (5×10^−7 M PEP0005). Rel EC50 denotes the concentration of test compound producing an effect that is midway between the fitted top and bottom. Abs EC50 is the concentration of test compound that provokes a response corresponding to 50% of the maximal effect associated with the positive control (5×10^−7 M PEP0005).

HeLa cells = experiment: Necrosis assay; type: cell-based; details: Homo sapiens, HeLa, 0.5 h, read-out: HeLa necrosis EC50 range
Protocol: HeLa cells (ATCC CCL-002) were grown in minimal essential medium (Invitrogen catalog no. 42360) containing 10% fetal bovine serum, 100 IU/ml penicillin and 100 μg/ml streptomycin. 4,000-6,000 cells were seeded into 96-well black ViewPlates-plates, clear bottom, (Perkin Elmer) in 100 μl medium and incubated overnight. Compounds were dissolved and pre-diluted in DMSO in 96-well polypropylene plates (Greiner) in a concentration range of 15 μM to 600 μM. At the time of the experiment cell plates were placed on heating blocks at 37° C., medium was removed and 40 μl fresh, pre-warmed medium was added per well. Cells were incubated for 15 min before addition of compounds. In parallel, 3 μl of compounds were diluted with 197 μl growth medium on a Tecan freedom-EVO pipetting station using 250 μl/s pipetting speed, in order to ensure effective mixing of the highly concentrated compound solutions with the aqueous phase. These pre-dilution plates were then equilibrated on heating blocks at 37° C. for 10 min. 80 μl pre-diluted compound were transferred manually to the corresponding wells containing HeLa cells yielding compound concentrations of 10 μM to 400 μM. Control conditions were 1% DMSO in growth medium (100% viability) and 400 μM ingenol mebutate in growth medium (0% viability). Plates were incubated on the heating blocks at 37° C. for 30 min. At the end of the incubation 10 μl PrestoBlue reagent (Invitrogen) were added to each well, plates were sealed with black seal, followed by incubation at 37° C. for 10 min with gentle shaking (150 rpm). Subsequently, plates were placed at room temperature for 20-30 min. Plates were read immediately after on an Envision Fluorescence reader (Perkin Elmer) with excitation at 535 nm and emission at 630 nm. Test compound titration curves were fitted to a four-parameter sigmoidal curve after normalizing the effect of the test compound to the effect of the positive control (4 10^−4 M PEP0005/ingenol mebutate). AbsEC50 denotes the concentration of test compound producing 50% effect.

| Structure (SMILES) | pEC50 [1] | pEC50 (HeLa cells) |
| --- | --- | --- |
| CC1=C[C@]23C(=O)[C@@H](C=C(CO)[C@@H](O)[C@]2(O)[C@H]1OC(=O)c1sc(=O)[nH]c1C)[C@H]1[C@@H](C[C@H]3C)C1(C)C [Compound 562, Ingenol 3-(4-methyl-2-oxo-3H-thiazole-5-carboxylate)] | 7.00 to 7.70 | < 3.46 |
| CC1=C[C@]23C(=O)[C@@H](C=C(CO)[C@@H](O)[C@]2(O)[C@H]1OC(=O)N1CC(=O)Nc2ccccc21)[C@H]1[C@@H](C[C@H]3C)C1(C)C [Compound 733, Ingenol 3-(3-oxo-2,4-dihydroquinoxaline-1-carboxylate)] | < 7.00 | 3.46 to 3.82 |
| CC1=C[C@]23C(=O)[C@@H](C=C(CO)[C@@H](O)[C@]2(O)[C@H]1OC(=O)c1ncccc1Br)[C@H]1[C@@H](C[C@H]3C)C1(C)C [Compound 524, Ingenol 3-(3-bromopyridine-2-carboxylate)] | 7.00 to 7.70 | 3.46 to 3.82 |
| CCNC(=O)O[C@H]1C(C)=C[C@]23C(=O)[C@@H](C=C(CO)[C@@H](O)[C@]12O)[C@H]1[C@@H](C[C@H]3C)C1(C)C [Compound 701, Ingenol 3-(N-ethyl-carbamate)] | 7.00 to 7.70 |  |
| CC1=C[C@]23C(=O)[C@@H](C=C(CO)[C@@H](O)[C@]2(O)[C@H]1OC(=O)c1nccc2ccccc12)[C@H]1[C@@H](C[C@H]3C)C1(C)C [Compound 512, Ingenol 3-(isoquinoline-1-carboxylate)] | 7.00 to 7.70 | > 3.82 |
| CC1=C[C@]23C(=O)[C@@H](C=C(CO)[C@@H](O)[C@]2(O)[C@H]1OC(=O)c1cc(-c2ccccc2)on1)[C@H]1[C@@H](C[C@H]3C)C1(C)C [Compound 511, Ingenol 3-(5-phenylisoxazole-3-carboxylate)] | 7.00 to 7.70 | > 3.82 |
| CC1=C[C@]23C(=O)[C@@H](C=C(CO)[C@@H](O)[C@]2(O)[C@H]1OC(=O)[C@@H]1CCCN1c1ccccc1)[C@H]1[C@@H](C[C@H]3C)C1(C)C [Compound 545, Ingenol 3-((2S)-1-phenylpyrrolidine-2-carboxylate)] | 7.00 to 7.70 | 3.46 to 3.82 |
| CC1=C[C@]23C(=O)[C@@H](C=C(CO)[C@@H](O)[C@]2(O)[C@H]1OC(=O)c1ccnc2ccccc12)[C@H]1[C@@H](C[C@H]3C)C1(C)C [Compound 513, Ingenol 3-(quinoline-4-carboxylate)] | > 7.70 | > 3.82 |
| CC1=C[C@]23C(=O)[C@@H](C=C(CO)[C@@H](O)[C@]2(O)[C@H]1OC(=O)N1CCCC1C(F)(F)F)[C@H]1[C@@H](C[C@H]3C)C1(C)C (some centres unmarked) [Compound 735, Ingenol 3-(2-trifluoromethyl-pyrrolidine-1-carboxylate)] | > 7.70 | 3.46 to 3.82 |
| C#CCN(C)C(=O)O[C@H]1C(C)=C[C@]23C(=O)[C@@H](C=C(CO)[C@@H](O)[C@]12O)[C@H]1[C@@H](C[C@H]3C)C1(C)C [Compound 751, Ingenol 3-(N-methyl-N-prop-2-ynyl-carbamate)] | 7.00 to 7.70 | < 3.46 |
| CC1=C[C@]23C(=O)[C@@H](C=C(CO)[C@@H](O)[C@]2(O)[C@H]1OC(=O)c1noc(C)c1C)[C@H]1[C@@H](C[C@H]3C)C1(C)C [Compound 569, Ingenol 3-(4,5-dimethylisoxazole-3-carboxylate)] | 7.00 to 7.70 | 3.46 to 3.82 |
| CC1=C[C@]23C(=O)[C@@H](C=C(CO)[C@@H](O)[C@]2(O)[C@H]1OC(=O)C12CCC(C)(C(=O)O1)C2(C)C)[C@H]1[C@@H](C[C@H]3C)C1(C)C [Compound 503, Ingenol 3-(1S-camphanate)] | 7.00 to 7.70 |  |
| CC1=C[C@]23C(=O)[C@@H](C=C(CO)[C@@H](O)[C@]2(O)[C@H]1OC(=O)N(C)c1ccc(F)cc1)[C@H]1[C@@H](C[C@H]3C)C1(C)C [Compound 730, Ingenol 3-(N-(4-fluoro-phenyl)-N-methyl-carbamate)] |  | 3.46 to 3.82 |
